We go through eleven molecules from ChEMBL document CHEMBL4270563, “Neurogenic and neuroprotective donepezil-flavonoid hybrids with sigma-1 affinity and inhibition of key enzymes in Alzheimer's disease” (Eur J Med Chem, 2018).

Calls of active or inactive are those of the source. No cut-off for these calls is given here.

One data set deals with Acetylcholinesterase (Homo sapiens, UniProt P22303). Briefly: Inhibition of recombinant human AChE expressed in HEK293 cells using acetylthiocholine iodide as substrate pretreated for 5 mins followed by substrate addition and measured for 5 mins by Ellman's method.
Acetylcholinesterase, sequence (P22303 whole entry): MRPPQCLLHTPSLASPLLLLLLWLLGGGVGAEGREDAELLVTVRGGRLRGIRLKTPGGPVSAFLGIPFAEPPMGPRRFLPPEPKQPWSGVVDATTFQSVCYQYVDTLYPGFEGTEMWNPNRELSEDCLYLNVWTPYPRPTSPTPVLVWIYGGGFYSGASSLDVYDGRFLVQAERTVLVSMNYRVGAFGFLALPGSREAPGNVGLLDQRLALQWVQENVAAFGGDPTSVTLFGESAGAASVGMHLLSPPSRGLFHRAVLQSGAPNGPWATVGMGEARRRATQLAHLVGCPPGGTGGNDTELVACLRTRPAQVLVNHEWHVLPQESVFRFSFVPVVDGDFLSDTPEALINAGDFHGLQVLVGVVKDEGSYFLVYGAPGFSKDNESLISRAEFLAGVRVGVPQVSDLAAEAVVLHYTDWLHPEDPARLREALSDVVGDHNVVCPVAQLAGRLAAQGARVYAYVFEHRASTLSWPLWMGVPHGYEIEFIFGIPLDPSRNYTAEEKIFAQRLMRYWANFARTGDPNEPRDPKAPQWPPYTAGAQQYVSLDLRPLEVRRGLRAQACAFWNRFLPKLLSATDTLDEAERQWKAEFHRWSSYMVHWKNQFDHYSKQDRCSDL
For another data set, the target named is Cholinesterase (Homo sapiens, UniProt P06276). Briefly: Inhibition of human serum BuChE using butyrylthiocholine as substrate pretreated for 5 mins followed by substrate addition and measured for 5 mins by Ellman's method.
Cholinesterase, sequence (P06276 whole entry): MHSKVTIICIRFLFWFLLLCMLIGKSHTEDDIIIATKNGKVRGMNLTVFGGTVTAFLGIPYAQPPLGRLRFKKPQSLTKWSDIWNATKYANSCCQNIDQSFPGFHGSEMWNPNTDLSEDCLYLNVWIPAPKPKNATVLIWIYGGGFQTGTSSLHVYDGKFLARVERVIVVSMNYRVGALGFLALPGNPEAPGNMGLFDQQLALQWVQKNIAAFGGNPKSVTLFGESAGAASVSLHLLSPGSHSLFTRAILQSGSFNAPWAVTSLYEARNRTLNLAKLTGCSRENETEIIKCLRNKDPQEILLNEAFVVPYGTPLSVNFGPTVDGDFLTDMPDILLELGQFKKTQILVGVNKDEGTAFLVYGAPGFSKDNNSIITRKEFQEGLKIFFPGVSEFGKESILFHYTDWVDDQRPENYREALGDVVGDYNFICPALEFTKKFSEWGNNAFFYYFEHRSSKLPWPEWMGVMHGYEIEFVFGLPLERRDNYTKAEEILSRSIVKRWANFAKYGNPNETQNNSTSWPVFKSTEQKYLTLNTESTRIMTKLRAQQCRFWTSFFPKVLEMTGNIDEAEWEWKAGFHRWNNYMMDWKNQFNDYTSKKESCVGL
The species entered for another data set is Homo sapiens. Briefly: Selectivity index, ratio of IC50 for human serum BuChE to IC50 for recombinant human AChE expressed in HEK293 cells. In kind it is cell-based.
Another data set is described as follows: in vitro. The settings on record: PAMPA, pH 7.4.
Data set [1] concerns the target T1, Polyunsaturated fatty acid 5-lipoxygenase (Homo sapiens, UniProt P09917).
T1 sequence (P09917 whole entry): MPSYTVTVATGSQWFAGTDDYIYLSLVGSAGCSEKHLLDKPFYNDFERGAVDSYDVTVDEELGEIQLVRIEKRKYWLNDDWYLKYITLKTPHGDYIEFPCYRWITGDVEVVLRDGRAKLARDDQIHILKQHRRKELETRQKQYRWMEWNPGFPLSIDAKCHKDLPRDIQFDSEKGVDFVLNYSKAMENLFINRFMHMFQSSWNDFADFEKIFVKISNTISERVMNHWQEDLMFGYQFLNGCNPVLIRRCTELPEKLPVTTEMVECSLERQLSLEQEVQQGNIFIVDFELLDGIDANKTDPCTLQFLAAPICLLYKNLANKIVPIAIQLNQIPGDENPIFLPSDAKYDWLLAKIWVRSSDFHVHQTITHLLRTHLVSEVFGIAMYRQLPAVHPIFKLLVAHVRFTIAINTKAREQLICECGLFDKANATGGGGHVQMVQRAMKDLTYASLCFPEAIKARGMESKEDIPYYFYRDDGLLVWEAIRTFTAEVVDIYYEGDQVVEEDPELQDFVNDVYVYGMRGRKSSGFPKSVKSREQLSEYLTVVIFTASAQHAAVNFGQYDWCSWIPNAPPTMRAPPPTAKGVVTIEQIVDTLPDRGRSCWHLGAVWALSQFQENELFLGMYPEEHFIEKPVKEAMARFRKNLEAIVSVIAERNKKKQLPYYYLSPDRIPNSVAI
Briefly: Inhibition of human 5-lipoxygenase using arachidonic acid as substrate pretreated for 10 mins followed by substrate and ATP addition and measured after 20 mins by H2DCFDA probe based fluorescence assay.

In data set [2] the target is T2, Polyunsaturated fatty acid 5-lipoxygenase (Homo sapiens) (UniProt P09917).
T2 sequence (whole entry): T1 sequence (P09917 whole entry)
The data set is described as follows: Inhibition of human 5-lipoxygenase at 10 uM using arachidonic acid as substrate pretreated for 10 mins followed by substrate and ATP addition and measured after 20 mins by […] probe based fluorescence assay relative to control.

The target of data set [3] is T3, Amine oxidase [flavin-containing] A (Homo sapiens, UniProt P21397).
T3 sequence (P21397 whole entry): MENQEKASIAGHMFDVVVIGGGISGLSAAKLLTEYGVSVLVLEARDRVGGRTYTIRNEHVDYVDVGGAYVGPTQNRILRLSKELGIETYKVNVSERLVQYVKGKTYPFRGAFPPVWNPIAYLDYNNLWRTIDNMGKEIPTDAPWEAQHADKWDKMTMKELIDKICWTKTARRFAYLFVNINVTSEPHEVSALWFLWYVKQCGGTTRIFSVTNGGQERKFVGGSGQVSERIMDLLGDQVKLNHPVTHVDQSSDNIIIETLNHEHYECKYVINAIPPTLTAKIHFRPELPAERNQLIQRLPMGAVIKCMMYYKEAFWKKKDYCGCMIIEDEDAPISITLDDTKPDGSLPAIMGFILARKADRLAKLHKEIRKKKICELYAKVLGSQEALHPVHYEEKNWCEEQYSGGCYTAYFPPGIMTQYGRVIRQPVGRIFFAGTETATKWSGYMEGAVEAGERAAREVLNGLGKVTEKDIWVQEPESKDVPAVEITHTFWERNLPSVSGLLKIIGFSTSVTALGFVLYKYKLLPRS
The data set is described as follows: Inhibition of recombinant human MAO-A expressed in baculovirus infected BTI insect cells using p-tyramine as substrate pretreated for 15 mins followed by substrate addition by horse-radish peroxidase/amplex red-based fluorescence method.

In data set [4] the target is T4, Amine oxidase [flavin-containing] B (Homo sapiens, UniProt P27338).
T4 sequence (P27338 whole entry): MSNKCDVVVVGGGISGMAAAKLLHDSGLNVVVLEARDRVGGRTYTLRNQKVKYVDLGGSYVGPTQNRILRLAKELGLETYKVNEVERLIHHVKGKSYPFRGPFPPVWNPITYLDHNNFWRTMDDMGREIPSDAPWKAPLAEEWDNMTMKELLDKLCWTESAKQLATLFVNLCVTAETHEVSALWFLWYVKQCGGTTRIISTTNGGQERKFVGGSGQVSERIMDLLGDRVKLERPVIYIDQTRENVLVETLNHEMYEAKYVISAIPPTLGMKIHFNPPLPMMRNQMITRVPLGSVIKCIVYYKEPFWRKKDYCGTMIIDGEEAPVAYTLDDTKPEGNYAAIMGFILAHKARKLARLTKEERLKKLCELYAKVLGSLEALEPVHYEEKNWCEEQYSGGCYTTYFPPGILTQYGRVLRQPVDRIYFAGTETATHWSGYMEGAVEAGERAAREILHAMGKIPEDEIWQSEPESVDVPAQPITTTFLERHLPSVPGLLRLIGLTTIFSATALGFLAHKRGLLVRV
Briefly: biochemical. In kind it is cell-based.
Description: Inhibition of recombinant human MAO-B expressed in baculovirus infected BTI insect cells using p-tyramine as substrate pretreated for 15 mins followed by substrate addition by horse-radish peroxidase/amplex red-based fluorescence method

Data set [5] is described as follows: Antioxidant activity assessed as trolox equivalent of AAPH-induced radical scavenging activity at 10 uM pretreated for 15 mins followed by APPH challenge measured every minute for 80 mins by ORAC-FL assay. It counts as functional.

Description for in vitro: Permeability of the compound in pH 7.4 PBS by PAMPA-BBB assay

As for `COc1ccc2oc(C(=O)OCC3CCN(Cc4ccccc4)CC3)cc(=O)c2c1`, the IC50 is 7.49 µM on Acetylcholinesterase and over 10 µM on Cholinesterase. For the same molecule, the Ratio IC50 in the data set filed under Homo sapiens was over 1.3. For the same molecule, in the data set “in vitro”, the Papp worked out at 6.1 ×10⁻⁶ cm/s.

With `COc1ccc2oc(C(=O)NCCC3CCN(Cc4ccccc4)CC3)cc(=O)c2c1`, the IC50 is 0.17 µM at Acetylcholinesterase; 6.5 µM at Cholinesterase; over 100 µM in data set [1]; over 100 µM in data set [3]; over 100 µM in [4]. In the data set listed under Homo sapiens, the Ratio IC50 came to 38. The inhibition in [2] worked out at 33%. The Papp in the data set “in vitro” was determined as 10 ×10⁻⁶ cm/s.

Turning to `COc1cccc2c(=O)cc(C(=O)NCCC3CCN(Cc4ccccc4)CC3)[nH]c12`, the concentration for half-maximal inhibition (IC50) on Acetylcholinesterase was 1.64 µM; on Cholinesterase, over 10 µM; in [1] it was over 100 µM; in data set [3], 52.4 µM; in data set [4] it was 71.6 µM. Moreover, in the data set filed under Homo sapiens, the Ratio IC50 is over 6.1. Further, the inhibition in data set [2] amounted to 47%. In addition, the outcome in [5] was inactive. The Papp in the data set “in vitro” was found to be 15.3 ×10⁻⁶ cm/s.

As to `COc1cccc2oc(C(=O)NCCC3CCN(Cc4ccccc4)CC3)cc(=O)c12`, the 50% inhibitory concentration (IC50) was 0.87 µM at Acetylcholinesterase and over 10 µM on Cholinesterase. Further, the Ratio IC50 in the data set filed under Homo sapiens was over 12.

For `O=C(NC1CCN(Cc2ccccc2)CC1)c1cc(=O)c2cc(O)ccc2o1`, the half-maximal inhibitory concentration (IC50) on Acetylcholinesterase was 2.36 µM; at Cholinesterase, over 10 µM; in data set [1], over 100 µM. In the data set listed under Homo sapiens, the Ratio IC50 is over 4.2. Moreover, in [2], the inhibition stood at 48%. The molecule further displayed an apparent permeability (Papp) in the data set “in vitro” of 1.9 ×10⁻⁶ cm/s.

For `COc1ccc2oc(C(=O)NCC3CCN(Cc4ccccc4)CC3)cc(=O)c2c1`, the half-inhibitory concentration (IC50) is 3.61 µM on Acetylcholinesterase and over 10 µM at Cholinesterase. Also, the Ratio IC50 in the data set listed under Homo sapiens was over 2.8. In the data set “in vitro”, this molecule came in with a Papp of 6.8 ×10⁻⁶ cm/s.

As to `COc1ccc2oc(C(=O)NCCCC3CCN(Cc4ccccc4)CC3)cc(=O)c2c1`, the IC50 at Acetylcholinesterase was 0.37 µM; at Cholinesterase it was 5.8 µM; in [1], 82.4 µM; in [3], over 100 µM; in data set [4], over 100 µM. Besides, the Ratio IC50 in the data set filed under Homo sapiens was found to be 16. Further, in data set [5], the outcome was inactive. The molecule further displayed a Papp in the data set “in vitro” of 10.6 ×10⁻⁶ cm/s.

`COc1cc2oc(C(=O)NCC3CCN(Cc4ccccc4)CC3)cc(=O)c2cc1OC`: the values for the 50% inhibitory concentration (IC50) (on Acetylcholinesterase; at Cholinesterase; in data set [1]) were 1.46 µM, over 10 µM and over 100 µM, respectively. Also, in the data set filed under Homo sapiens, the Ratio IC50 is over 6.8. Further, the inhibition in data set [2] is 45%.

As to `COc1ccc2c(=O)cc(C(=O)NCCC3CCN(Cc4ccccc4)CC3)oc2c1`, the IC50 is 0.033 µM at Acetylcholinesterase; 9.9 µM on Cholinesterase; over 100 µM in data set [1]; over 100 µM in data set [3]; over 100 µM in data set [4]. In addition, the Ratio IC50 in the data set filed under Homo sapiens is 300. Further, the inhibition in [2] came out at 31%. Also, the Papp in “in vitro” turned out to be 7.6 ×10⁻⁶ cm/s.

Turning to `COc1cc2nc(C(=O)NCCC3CCN(Cc4ccccc4)CC3)cc(OC)c2cc1OC`, the concentration for half-maximal inhibition (IC50) on Acetylcholinesterase amounted to 0.62 µM; at Cholinesterase it was 8.79 µM. Further, the Ratio IC50 in the data set filed under Homo sapiens worked out at 14. The molecule also showed an apparent permeability (Papp) in the data set “in vitro” of 13 ×10⁻⁶ cm/s.

`COc1cc(OC)c2c(=O)cc(C(=O)NCCC3CCN(Cc4ccccc4)CC3)oc2c1`: the half-inhibitory concentration (IC50) worked out at 0.32 µM at Acetylcholinesterase and 6.3 µM on Cholinesterase. Moreover, the Ratio IC50 in the data set filed under Homo sapiens was determined as 20. This molecule showed an apparent permeability (Papp) in “in vitro” of 8.8 ×10⁻⁶ cm/s.
